The values below come from article PMC11568214, “The impact of 9-azaglycophymine and phenylguanidine derivatives on the proliferation of various breast cancer cell lines in vitro and in vivo” (Scientific Reports, 2024).

The test system of data set [1] is 4T1. Nature of the data set: Apoptosis analysis, AnnV/PI staining, flow cytometry. Type of data set: cell-based, mouse. Particulars: 4T1, IC50 for 72 h; control cells 31%. Here is the method:
(§1) Cells were seeded in 6-well plates and incubated for 24 h under standard culture conditions. […] For apoptosis analyses, the cell suspension was centrifuged for 3 min at 800 rpm, and the cell pellet was stained by using 100 µL of AnnV/PI working solution (5 µL of AnnV, 2 µL of PI in 100 µL of PBS) for 15 min at RT and protected from light. The staining was terminated by the addition of 900 µL of annexin binding buffer. Finally, all samples were analyzed by using flow cytometry (FACSAria III, BD Biosciences, New Jersey, USA).
(In general: Flow cytometry measures light scatter and fluorescence of single cells or particles in a stream.)

Data set [2] relates to 4T1. Nature of the data set: NO production, DAF-FM staining, flow cytometry. Type of data set: cell-based, mouse. Further details: key: ↑: induction; ↓: inhibition; ↔: no effect. Particulars: 4T1, IC50 for 72 h. The protocol: (§2) Afterwards, the medium was discarded and the cells were stained with DAF-FM (5 µM) in RPMI1640 with 10% (v/v) FCS for 1 h at 37 °C. The stain was completed by additional incubation for 15 min with serum-free medium. The cells were then detached, re-suspended in PBS and analyzed by flow cytometry.

The test system of data set [3] is MCF-7. Nature of the data set: Apoptosis analysis, AnnV/PI staining, flow cytometry. Type of data set: cell-based, human. Particulars: MCF-7, IC50 for 72 h. The protocol:
as §1

Data set [4] concerns HCC1937. The data set is described as above. The data set is classed as cell-based, human. Particulars: HCC1937, IC50 for 72 h; control cells 19%. Here is the method:
as §1

In data set [5] the test system is BT-474. The data set is described as above. The data set is classed as cell-based, human. Particulars: BT-474, IC50 for 72 h; control cells 20%. Here is the method:
as §1

The test system of data set [6] is MDA-MB-468. The data set is described as above. The data set is classed as cell-based, human. Particulars: MDA-MB-468, IC50 for 72 h. Here is the method:
as §1

For data set [7], the system named is MCF-7. Kind of data set: Cell division analysis, CFSE staining, flow cytometry. The data set is classed as cell-based, human. Further details: key: ↑: induction; ↓: inhibition; ↔: no effect. Particulars: MCF-7, IC50 for 72 h. The protocol: (§3) The cells were stained with CFSE (1 µM) in PBS containing 0.1% (v/v) FCS for 10 min. Afterwards, cells were washed with PBS, and then seeded with growth medium in 6-well plates. The plates were incubated for 24 h under standard culture conditions. […] Subsequently, the cells were detached using 0.5 mL of 0.05% (v/v) Trypsin–EDTA for 3 min at 37 °C. Then trypsin was deactivated by the addition of FCS-containing growth medium. The cell suspensions were collected, centrifuged for 3 min at 800 rpm, and the cell pellets were resuspended in fresh PBS. Finally, the samples were analyzed by using flow cytometry.

The subject of data set [8] is HCC1937. The description is as above. Particulars: HCC1937, IC50 for 72 h. The data set is classed as cell-based, human. Further details: key: ↑: induction; ↓: inhibition; ↔: no effect. Here is the method:
as §3

Data set [9] deals with BT-474. Described as above. Type of data set: cell-based, human. Particulars: BT-474, IC50 for 72 h. Further details: key: ↑: induction; ↓: inhibition; ↔: no effect. The protocol: as §3
Data set [10] deals with MDA-MB-468. The description is as above. The data set is classed as cell-based, human. Further details: key: ↑: induction; ↓: inhibition; ↔: no effect. Particulars: MDA-MB-468, IC50 for 72 h. Here is the method: as §3
A short description of data set [11]: Histopathology of tumors, kidneys, livers and spleens in the 4T1 in vivo study. Further details: species or system BALB/c mice. An excerpt:
Tissue samples of tumors, kidneys, livers and spleens were fixed in 4% (v/v) formalin. After fixation, tissues were embedded in paraffin blocks, and 4 µm thick sections were obtained, mounted on glass slides, stained with Hematoxylin Eosin, and analyzed by using an Olympus BX43 microscope (Olympus, Tokyo, Japan). All slides were scanned with a Leica Biosystems Aperio AT2 with ×400 magnification (n = 3 per group). Virtual slides generated from Leica Aperio AT2 (Wetzlar, Germany) were additionally analyzed with Aperio ImageScope (v12.4.3.5008) and with FIJI-ImageJ software.

In data set [12] the test system is MCF-7. Nature of the data set: NO production, DAF-FM staining, flow cytometry. Particulars: MCF-7, IC50 for 72 h. The data set is classed as cell-based, human. Further details: key: ↑: induction; ↓: inhibition; ↔: no effect. The protocol:
as §2

For data set [13], the system named is HCC1937. Kind of data set: NO production, DAF-FM staining, flow cytometry. The data set is classed as cell-based, human. Further details: key: ↑: induction; ↓: inhibition; ↔: no effect. Particulars: HCC1937, IC50 for 72 h. Here is the method:
as §2

Data set [14] relates to BT-474. Nature of the data set: NO production, DAF-FM staining, flow cytometry. Type of data set: cell-based, human. Further details: key: ↑: induction; ↓: inhibition; ↔: no effect. Particulars: BT-474, IC50 for 72 h. Here is the method:
as §2

Data set [15] has as its system MDA-MB-468. Nature of the data set: NO production, DAF-FM staining, flow cytometry. The data set is classed as cell-based, human. Further details: key: ↑: induction; ↓: inhibition; ↔: no effect. Particulars: MDA-MB-468, IC50 for 72 h. The protocol: as §2
Data set [16] concerns 4T1. Kind of data set: Pan-caspase activation, ApoStat staining, flow cytometry. Type of data set: cell-based, mouse. Further details: key: ↑: induction; ↓: inhibition; ↔: no effect. Particulars: 4T1, IC50 for 72 h. The protocol: Cells were seeded in 6-well plates and incubated for 24 h under standard culture conditions. […] For the analyses of pan-caspase activation, the cell suspension was centrifuged for 3 min at 800 rpm, and the cell pellet was stained with 100 µL of ApoStat working solution (1 µL of ApoStat and 5% (v/v) FCS in 100 µL of PBS). Cells were incubated for 30 min under standard culture conditions. The cell suspension was centrifuged for 3 min at 800 rpm, and the cell pellet was washed with 1 mL of fresh PBS. Finally, all samples were analyzed by using flow cytometry (FACSAria III, BD Biosciences, New Jersey, USA).

`O=c1[nH]c(Nc2ccc([N+](=O)[O-])cc2)nc2ccccc12` [Compound 19, 4′-nitro-9-aza-glycophymine]: the “percentage of apoptotic cells” value with 4T1 [1] is given as 69%; in the data set on HCC1937 [4] it was 47%; in the data set with BT-474 [5], 51%. Besides, the NO result is recorded as “↑” in the data set with 4T1 [2]; “↑” in the data set on MCF-7 [12]; “↑” in the data set with HCC1937 [13]; “↑” in the data set with BT-474 [14]; “↔” in the data set with MDA-MB-468 [15]. The “induction of apoptotic cell death” value in the data set with MCF-7 [3] and in the data set with MDA-MB-468 [6] was “did neither activate caspases nor apoptotic cell death” throughout. For the same molecule, the Proliferation result in the data set on MCF-7 [7] is “↔”; with HCC1937 [8], “↓”; in the data set with BT-474 [9], “↓”; in the data set with MDA-MB-468 [10] it was “↔”. In addition, the “morphological changes in kidney, spleen and liver tissue” value in [11] (5 and 20 mg/kg i.p., day 21, compared to control group) is “did not cause significant morphological changes”. Further, in data set [11] (treated animals in comparison to the control group, day 21), the “extent of tumor necrosis” value is given as “a higher extent of necrosis was found in treated animals”. For the same molecule, the Pan-caspases entry in the data set with 4T1 [16] is given as “↑”.
